From US20170100447A1, “COMPOSITIONS BASED ON PLANT EXTRACTS FOR INHIBITION OF THE 5-ALPHA REDUCTASE” (BIONAP S.R.L., priority 2014, published 2017)

Tested on: immortalized human sebocytes (SZ95 sebocyte line)
Assay: MTT assay on testosterone-stimulated sebocytes
Type: cell-based
Conditions: testosterone 10^−6 M; 9 days
Protocol: The line of immortalized human sebocytes (SZ95 sebocyte line) has been cultivated in medium Sebomed (Biochrom) supplemented with fetal calf serum 10%, […] of recombining human epidermal growth factor, 1 mM Ca^2+ and 50 μg/ml gentamicin, in an atmosphere of CO2 5% at 37° C. The SZ95 cells have been subsequently plated on wells for the MTT assays and, after 24 hours of incubation in an atmosphere of CO2 5% at 37° C., have been treated with a new culture medium containing testosterone in a final concentration of 10^−6 M and the extracts, according to the indications reported in Table 1.
The cellular vitality has been assessed for each sample after 9 days of treatment through colorimetric MTT assay (according to the protocol as above described) and expressed in a percentage value with respect to control (0%) and to the treatment with testosterone (test=100%). Each experiment has been carried out in triplicate.

Structure (SMILES): C[C@]12CC[C@H]3[C@@H](CCC4=CC(=O)CC[C@@]43C)[C@@H]1CC[C@@H]2O [testosterone]
- effect of testosterone on cellular proliferation of SZ95 sebocytes: induces in these cells an increase of cellular proliferation
